# Measured values taken from US20150283093A1, “NANOENCAPSULATION OF CURCUMINOID METABOLITES - PROCESS, COMPOSITION AND APPLICATIONS THEREOF” (priority 2014, published 2015).
# Assay: Superoxide radical scavenging activity (alkaline DMSO / NBT method)
# Experimental: The scavenging activity towards the superoxide radical (O2^−) was measured as the inhibition of superoxide radical (O2^−) generation. The method was performed by using alkaline DMSO method. Potassium superoxide and dry DMSO were allowed to stand in contact for 24 h and the solution was filtered immediately before use. […] Ascorbic acid was used as standard. The experiment was repeated in triplicate and the percentage scavenging was calculated by using the formula:
# Inhibition (%)=[(Control−Test)/Control]×100
compound,measurement,setting,value
Cc1c(C)c2c(c(C)c1O)CCC(C)(C(=O)O)O2 (centres unmarked) [TROLOX],"scavenging of superoxide radical (O2−), concentration dependence",,concentration dependant scavenging
same,scavenging potential of superoxide radical (O2−),at 100 μM concentration,47.80%
